Where “and” joins values, the source holds several entries; their conditions need not be identical. Equal entries are not always repeated.

What all share (assay type): cell-based, corn (Zea mays)
The subject of assay [1] is corn seed excised explants. The assay can be described thus: Corn explant transformation: bud induction with different glyphosate concentrations, 28° C. vs 35° C. first week (Table 2). The protocol: To evaluate the effect of elevated temperature during the initial bud induction step on transformation, two temperature treatments were evaluated using glyphosate for selection: 1) bud induction for two weeks at 28° C.; and 2) bud induction for one week at an elevated temperature of 35° C. followed by one week of bud induction at 28° C. The proceeding and subsequent steps for transformation of the corn explants in this experiment were generally performed as described in Example 1.
Following Agrobacterium inoculation and co-culture, corn explants were transferred to bud induction medium containing MS salts and B5 vitamins supplemented with 2 mg/L TDZ, 1 mg/L 2,4-D and different concentrations of glyphosate and cultured under the temperature conditions described above.
Total number shoots was calculated as the total number of shoots regenerated from inoculated explants, including both normal and chimeric shoots. The shoot frequency was calculated as the number of inoculated explants producing shoots divided by the total number of inoculated explants. […] The percentage normal shoots was calculated as the number of normal shoots divided by the total number of shoots. Normal shoot frequency was calculated as the number of normal shoots divided by the total number of inoculated explants.

A further assay relates to corn explants. The experiment in a line: Different cytokinins during bud induction on corn explant transformation (Table 30). Conditions: for # Normal Shoot / Total # Shoot: 5,000 explants. The method, then: An experiment was conducted to evaluate the effect of using different cytokinins during bud induction on corn explant transformation. Corn explants were surface sterilized, purified, rehydrated, inoculated with Agrobacterium, co-cultured, and subjected to the bud induction (without the second extended bud induction step) and regeneration steps as described in Example 1, unless otherwise noted. Glyphosate was used as the selection agent.
In this experiment, bud induction using four cytokinins, 6-Benzylaminopurine (BAP), Zeatin, thidiazuron (TDZ) and 6-(γ,γ-dimethylallylamino)purine (2iP), was evaluated.
The shoot frequency was calculated as the number of inoculated explants producing shoots divided by the total number of inoculated explants. The normal shoot frequency was calculated as the number of normal shoots divided by the total number of inoculated explants.

The subject of assay [2] is corn seed excised explants. The experiment in a line: 2,4-D in co-culture medium on corn explant transformation, 17 experiments (Table 32). The protocol: Seventeen independent experiments were conducted to evaluate the effect of 2,4-D in the co-culture medium on corn explant transformation. Corn explants were surface sterilized, purified, rehydrated, inoculated with Agrobacterium, co-cultured, and subjected to bud induction, extended bud induction, and regeneration as described in Example 1, unless otherwise noted. Agrobacterium containing the same Ti plasmid as described in Example 9 was used for all experiments, except for experiments 13-17, in which two different bacterial origins of replication in the Ti-plasmid were evaluated in the presence or absence of 2,4-D in co-culture medium. In these cases, the Ti plasmids carried the same two expression cassettes flanked by T-DNA borders, one comprising the chloroplast-targeted CP4 EPSPS gene under the control of a constitutive promoter and the other comprising the uidA gene under the control of a similar constitutive promoter.
Table 32 provides a summary of results from treatments with and without 2,4-D in the co-culture medium from the 17 experiments. […] The increase in normal plant frequency ranged from 1.1 to 3.0-fold with an average increase of 1.8-fold.
(§1) The normal plant frequency was calculated as the number of normal plants divided by the total number of inoculated explants.

For assay [3], the system named is corn seed excised explants. The assay can be described thus: 2,4-D in co-culture and co-culture duration 4 vs 5 days on corn explant transformation (Tables 34, 35). Conditions: for # Normal Plants / Normal Plant Frequency (%) / Shoot Frequency (%) / Total # Shoots: 2,4-D (5 mg/L) in co-culture +; for average normal plant frequency (%): 2,4-D present in co-culture (5 mg/L). The method, then:
In a separate experiment, co-culture durations of 4 days and 5 days were evaluated in combination with the presence or absence of 5 mg/L 2,4-D in the co-culture medium. Corn seed excised explants were surface sterilized, rehydrated and inoculated with an Agrobacterium suspension as described in the preceding experiment. The Agrobacterium contained a chloroplast-targeted CP4 EPSPS gene under the control of a constitutive promoter flanked by T-DNA borders on the Ti plasmid. The inoculated explants were transferred to co-culture plates with or without 5 mg/L 2,4-D and co-cultured for 4 or 5 days prior to bud induction, extended bud induction, and regeneration as described in the preceding experiment.
Furthermore, co-culture for 4 days produced a higher normal plant frequency compared to co-culture for 5 days.
The shoot frequency was calculated as the number of inoculated explants producing shoots divided by the total number of inoculated explants. The normal plant frequency was calculated as the number of normal plants divided by the total number of inoculated explants.
as §1

Setting [4] is: glyphosate 12.5 μM, 1st week bud induction 28° C.
The mark [5] stands for this setting: glyphosate 12.5 μM, 1st week bud induction 35° C.
[6] abbreviates: glyphosate 25.0 μM, 1st week bud induction 28° C.
Setting [7] is: glyphosate 25.0 μM, 1st week bud induction 35° C.
Setting [8] is: glyphosate 37.5 μM, 1st week bud induction 28° C.
[9] abbreviates: glyphosate 37.5 μM, 1st week bud induction 35° C.
The mark [10] stands for this setting: glyphosate 50.0 μM, 1st week bud induction 28° C.
The mark [11] stands for this setting: glyphosate 50.0 μM, 1st week bud induction 35° C.
[12] abbreviates: cytokinin 10 mg/L in bud induction.
Setting [13] is: cytokinin 2 mg/L in bud induction.

For the compound `O=C(O)CNCP(=O)(O)O` [Glyphosate, glyphosate], the “Normal Shoot Frequency (%)” value was 0.36% in assay [1] (setting [4]); 1.12% in assay [1] (setting [5]); 0.28% in assay [1] (setting [6]); 1.84% in assay [1] (setting [7]); 0.2% in assay [1] (setting [8]); 1.36% in assay [1] (setting [9]). In addition, the “Normal Shoot Frequency (%)” value in assay [1] (setting [10]) turned out to be 0.16%; in assay [1] (setting [11]) it was 1.8%. In addition, the “Normal Shoots (%)” value in assay [1] (setting [4]) worked out at 10.23%; in assay [1] (setting [5]), 14.43%; in assay [1] (setting [6]), 31.82%; in assay [1] (setting [7]), 20.91%; in assay [1] (setting [8]), 83.33%; in assay [1] (setting [9]), 22.82%. The “Normal Shoots (%)” value in assay [1] (setting [10]) was 66.67%; in assay [1] (setting [11]), 32.61%. In addition, the “Shoot Frequency (%)” value is given as 3.52% in assay [1] (setting [4]); 7.76% in assay [1] (setting [5]); 0.88% in assay [1] (setting [6]); 8.8% in assay [1] (setting [7]); 0.24% in assay [1] (setting [8]); 5.96% in assay [1] (setting [9]). Besides, the figures for the “Shoot Frequency (%)” value in assay [1] (setting [10]) and in assay [1] (setting [11]) were 0.24% and 5.52%, respectively. Moreover, the “Total # Normal Shoots” value was 9 in assay [1] (setting [4]); 28 in assay [1] (setting [5]); 7 in assay [1] (setting [6]); 46 in assay [1] (setting [7]); 5 in assay [1] (setting [8]); 34 in assay [1] (setting [9]). Also, the figures for the “Total # Normal Shoots” value in assay [1] (setting [10]) and in assay [1] (setting [11]) were 4 and 45, respectively. Besides, the “Total # Shoots” value in assay [1] (setting [4]) worked out at 88; in assay [1] (setting [5]), 194; in assay [1] (setting [6]) it was 22; in assay [1] (setting [7]) it was 220; in assay [1] (setting [8]), 6; in assay [1] (setting [9]), 149. For the same compound, the “Total # Shoots” value was found to be 6 in assay [1] (setting [10]) and 138 in assay [1] (setting [11]).
Turning to `CC(C)=CCNc1ncnc2nc[nH]c12` [2iP, 6-(γ,γ-dimethylallylamino)purine], in the assay on corn explants (setting [12]), the “Normal Shoot Frequency (%)” value amounted to 0.06%, the “Shoot Frequency (%)” value came out at 0.14%, the “# Normal Shoot” value came to 3 and the “Total # Shoot” value worked out at 7.
For `c1ccc(CNc2ncnc3nc[nH]c23)cc1` [BAP, 6-Benzylaminopurine], in the assay with corn explants (setting [12]), the “Normal Shoot Frequency (%)” value is 1.56%, the “Shoot Frequency (%)” value is 5.80%, the “# Normal Shoot” value is on record as 78 and the “Total # Shoot” value is 290. In addition, the bud induction result in the assay on corn explants (other studies, 1-8 mg/L BAP) is “bud induction was also observed”.
In the case of `O=C(O)COc1ccc(Cl)cc1Cl` [2,4-D, 2,4-dichlorophenoxyacetic acid], the “Normal Plant Frequency (%) With 2,4-D (5 mg/L)” value in assay [2] (2,4-D 5 mg/L in co-culture medium, individual experiments 1-17, normal plants / inoculated explants) was 1.10% and 1.24% and 1.48% and 0.20% and 0.60% and 2.40% and 1.70% (2×) and 4.20% and 1.50% and 0.40% (2×) and 0.70% and 0.80% and 1.40% and 1.00% and 1.56%. The “Normal Plant Frequency (%) With 2,4-D (5 mg/L), OVERALL” value in assay [2] (2,4-D 5 mg/L in co-culture medium, overall of 17 experiments) is on record as 1.32%. Moreover, the “average increase in normal plant frequency on removal of 2,4-D from the co-culture medium” value in assay [2] (17 experiments) was determined as 1.8 fold. Besides, in assay [3] (co-culture duration 4 days), the “# Normal Plants” value was 19 and 10; the “Normal Plant Frequency (%)” value was 0.8% and 0.9%; the “Shoot Frequency (%)” value was 1.5% and 1.1%; the “Total # Shoots” value is 35 and 21. In addition, in assay [3] (co-culture duration 5 days), the “# Normal Plants” value is recorded as 4, the “Normal Plant Frequency (%)” value is on record as 0.5%, the “Shoot Frequency (%)” value was 1.1% and the “Total # Shoots” value was 9. In assay [3] (duration 4 days), the “average normal plant frequency (%)” value is reported as 0.85%. The “average normal plant frequency (%)” value in assay [3] (duration 5 days) was 0.5%. Also, the “average normal plant frequency” value in assay [3] (2,4-D present in co-culture medium (5 mg/L), 4 and 5 days) amounted to 0.73%.
`O=C(Nc1ccccc1)Nc1cnns1` [TDZ, thidiazuron]: in the assay on corn explants (setting [13]), the “Normal Shoot Frequency (%)” value is 1.70%, the “Shoot Frequency (%)” value is recorded as 8.88%, the “# Normal Shoot” value was 85 and the “Total # Shoot” value is listed as 444.
Turning to `C/C(=C\CNc1ncnc2[nH]cnc12)CO` [Zeatin], in the assay on corn explants (setting [13]), the “Normal Shoot Frequency (%)” value was 0.06%, the “Shoot Frequency (%)” value is given as 0.20%, the “# Normal Shoot” value was determined as 3 and the “Total # Shoot” value was 10.

The values above are taken from US20240301435A1, “COMPOSITIONS AND METHODS FOR TRANSFORMATION OF MONOCOT SEED EXCISED EMBRYO EXPLANTS” (Monsanto Technology LLC, priority 2021, published 2024).
